Source: US10703757B2, “Compounds and methods for CDK8 modulation and indications therefor” (Plexxikon Inc., priority 2016, dated 2020)

Tested on: CDK8 (phosphorylation of STAT1 at serine 727 in A549 cells)
Assay: Cell based Phospho-STAT1 assay (IFNγ-stimulated A549 cells, AlphaLISA)
Settings: Homo sapiens, A549, A549 cells, phospho-STAT1 after IFNγ stimulation
Protocol: Determine Inhibitor Activity Against CDK8 in Cell Based Phospho-STAT1 Assay
This assay measures the phosphorylation of the CDK8 substrate STAT1 following Interferon-gamma (IFNγ) stimulation^1. The lung carcinoma cell line A549 is seeded in a 96 well plate in 50 μL of culture media at 5×10^4 cells/well and incubated at 37° C. overnight. Serial dilutions of compounds (in total volume of 50 μL culture media) are added to the cells and incubated at 37° C. for one hour. Human IFNγ (R&D Systems) is added to the cells at a 10 ng/mL final concentration. 4 wells containing DMSO treated cells stimulated with IFNγ serve as high controls and 4 wells containing DMSO treated unstimulated cells serve as low controls. After 30 minute IFNγ stimulation at 37° C., the culture media is removed and 50 μL of 1×AlphaLISA lysis buffer (PerkinElmer GA, USA) is added to each well. 5 μL cell lysate is transferred to a 384 well AlphaPlate (PerkinElmer GA, USA) and 5 μL containing 0.156 nM Phospho-STAT1 (Ser727) rabbit monoclonal antibody (Cell Signaling Technology), 0.156 nM Mouse Anti-STAT1 antibody (BD Transduction Laboratories), and 10 μg/mL Anti-rabbit IgG AlphaLISA acceptor beads (PerkinElmer GA, USA) diluted in 1× AlphaLISA immunoassay buffer (PerkinElmer GA, USA) is added to the cell lysates and incubated at room temperature for 90 minutes. 5 μL Anti-Mouse IgG Alpha donor beads diluted in 1× AlphaLISA immunoassay buffer (PerkinElmer GA, USA) is added to the reaction mixture and incubated at room temperature for 90 minutes. Upon excitation of these beads with laser light at 680 nm, singlet oxygen is produced. This singlet oxygen is rapidly quenched, unless the AlphaLISA Anti-Rabbit IgG acceptor beads are in close proximity, in which case a proximity signal can be measured at […]. In the presence of cellular CDK8 catalytic activity, there is a very strong proximity signal. Selective CDK8 inhibitors affect a decrease in this proximity signal through a decrease in phosphorylation of STAT1 at serine 727. The percentage inhibition at individual concentrations relative to high and low controls is calculated. The data are analyzed by using nonlinear regression to generate IC50 values.

| IC50 | SMILES |
| --- | --- |
| 100 to 1000 nM | Cc1noc(-c2ccc(-c3cnn4cccc(N5CCC(C#N)(c6ccccn6)CC5)c34)cc2)n1 [Compound P-0351, 1-(3-(4-(3-methyl-1,2,4-oxadiazol-5-yl)phenyl)pyrazolo[1,5-a]pyridin-4-yl)-4-(pyridin-2-yl)piperidine-4-carbonitrile] |
| 100 to 1000 nM | Cn1ncc2ccc(-c3cnn4cccc(N5CCC(C#N)(c6ccccn6)CC5)c34)cc21 [Compound P-0352, 1-(3-(1-methyl-1H-indazol-6-yl)pyrazolo[1,5-a]pyridin-4-yl)-4-(pyridin-2-yl)piperidine-4-carbonitrile] |
| 1000 to 10000 nM | Cn1cc(C#Cc2cnc3cccc(N4CCC5(CC4)COC5)n23)cn1 [Compound P-0354, 7-(3-((1-methyl-1H-pyrazol-4-yl)ethynyl)imidazo[1,2-a]pyridin-5-yl)-2-oxa-7-azaspiro[3.5]nonane] |
| 100 to 1000 nM | CC(C)(C#N)COc1cccc2ncc(-c3ccc(-c4cnn(C(F)F)c4)cc3)n12 [Compound P-0355, 3-((3-(4-(1-(difluoromethyl)-1H-pyrazol-4-yl)phenyl)imidazo[1,2-a]pyridin-5-yl)oxy)-2,2-dimethylpropanenitrile] |
| 0.1 to 100 nM | CN1CCN(C(=O)c2ccc3cc(-c4cnn5cccc(C6=CCC(C#N)CC6)c45)ccc3c2)CC1 (stereo not shown) [Compound P-0356, 4-(3-(6-(4-methylpiperazine-1-carbonyl)naphthalen-2-yl)pyrazolo[1,5-a]pyridin-4-yl)cyclohex-3-ene-1-carbonitrile] |
| 0.1 to 100 nM | Cn1ncc2cc(-c3cnc4[nH]ccc4c3N3CCC(C#N)CC3)ccc21 [Compound P-0357, 1-[5-(1-methylindazol-5-yl)-1H-pyrrolo[2,3-b]pyridin-4-yl]piperidine-4-carbonitrile] |
| 0.1 to 100 nM | Cn1cc(-c2ccc(-c3cnc4[nH]cc(Cl)c4c3N3CCC(C#N)CC3)cc2)cn1 [Compound P-0360, 1-(3-chloro-5-(4-(1-methyl-1H-pyrazol-4-yl)phenyl)-1H-pyrrolo[2,3-b]pyridin-4-yl)piperidine-4-carbonitrile] |
| 0.1 to 100 nM | Cn1ncc2cc(-c3cnc4cccc(N5CCC(C#N)CC5)n34)ccc21 [Compound P-0361, 1-(3-(1-methyl-1H-indazol-5-yl)imidazo[1,2-a]pyridin-5-yl)piperidine-4-carbonitrile] |
| 0.1 to 100 nM | Cn1ncc2cc(-c3cnn4cccc(N5CCC(C#N)(c6ccccn6)CC5)c34)ccc21 [Compound P-0364, 1-(3-(1-methyl-1H-indazol-5-yl)pyrazolo[1,5-a]pyridin-4-yl)-4-(pyridin-2-yl)piperidine-4-carbonitrile] |
| 0.1 to 100 nM | Cn1cc(-c2ccc(-c3cnn4cccc(N5CCC(C#N)(c6ccccn6)CC5)c34)cc2)cn1 [Compound P-0365, 1-(3-(4-(1-methyl-1H-pyrazol-4-yl)phenyl)pyrazolo[1,5-a]pyridin-4-yl)-4-(pyridin-2-yl)piperidine-4-carbonitrile] |
| 0.1 to 100 nM | Cn1ncc2cc(-c3cnc4cccc(C5=CCC(C#N)CC5)n34)ccc21 (stereo not shown) [Compound P-0367, 4-(3-(1-methyl-1H-indazol-5-yl)imidazo[1,2-a]pyridin-5-yl)cyclohex-3-ene-1-carbonitrile] |
| 0.1 to 100 nM | Cn1cc(-c2ccc(-c3cnn4cccc(C#CC5(O)COC5)c34)cc2)cn1 [Compound P-0368, 3-((3-(4-(1-methyl-1H-pyrazol-4-yl)phenyl)pyrazolo[1,5-a]pyridin-4-yl)ethynyl)oxetan-3-ol] |
| 1000 to 10000 nM | NC(=O)C1CC=C(c2cccc3ncc(-c4ccc(OCCN5CCCCC5)cc4)n23)CC1 (stereo not shown) [Compound P-0369, 4-(3-(4-(2-(piperidin-1-yl)ethoxy)phenyl)imidazo[1,2-a]pyridin-5-yl)cyclohex-3-ene-1-carboxamide] |
| 0.1 to 100 nM | CC(C)(O)C#Cc1cccn2ncc(-c3ccc(-c4cnn(C(F)F)c4)cc3)c12 [Compound P-0370, 4-(3-(4-(1-(difluoromethyl)-1H-pyrazol-4-yl)phenyl)pyrazolo[1,5-a]pyridin-4-yl)-2-methylbut-3-yn-2-ol] |
| 1000 to 10000 nM | FC(F)n1cc(-c2ccc(-c3cccn4ncc(-c5ccc(-c6cnn(C(F)F)c6)cc5)c34)cc2)cn1 [Compound P-0371, 3,4-bis(4-(1-(difluoromethyl)-1H-pyrazol-4-yl)phenyl)pyrazolo[1,5-a]pyridine] |
| 1000 to 10000 nM | Cn1cc(-c2ccc(-c3cnc4cccc(OC5CCC(F)(F)CC5)n34)cc2)cn1 [Compound P-0372, 5-((4,4-difluorocyclohexyl)oxy)-3-(4-(1-methyl-1H-pyrazol-4-yl)phenyl)imidazo[1,2-a]pyridine] |

| IC50 | SMILES |
| --- | --- |
| 100 to 1000 nM | CCC(O)(C#Cc1cccn2ncc(-c3ccc(-c4cnn(C)c4)cc3)c12)CC [Compound P-0373, 3-ethyl-1-(3-(4-(1-methyl-1H-pyrazol-4-yl)phenyl)pyrazolo[1,5-a]pyridin-4-yl)pent-1-yn-3-ol] |
| 0.1 to 100 nM | Cn1cc(C#Cc2cnc3cccc(C4=CCC(C#N)CC4)n23)cn1 (stereo not shown) [Compound P-0374, 4-(3-((1-methyl-1H-pyrazol-4-yl)ethynyl)imidazo[1,2-a]pyridin-5-yl)cyclohex-3-ene-1-carbonitrile] |
| 0.1 to 100 nM | Cn1cc(-c2ccc(-c3cnc4cccc(C#CC(C)(C)O)n34)cc2)cn1 [Compound P-0375, 2-methyl-4-(3-(4-(1-methyl-1H-pyrazol-4-yl)phenyl)imidazo[1,2-a]pyridin-5-yl)but-3-yn-2-ol] |
| 100 to 1000 nM | Cn1cncc1C#Cc1cnc2cccc(N3CCC4(CC3)C(=O)Nc3ccccc34)n12 [Compound P-0376, 1′-[3-[2-(3-methylimidazol-4-yl)ethynyl]imidazo[1,2-a]pyridin-5-yl]spiro[indoline-3,4′-piperidine]-2-one] |
| 1000 to 10000 nM | Cn1cc(-c2ccc(-c3cnc4cccc(NCc5cccnc5)n34)cc2)cn1 [Compound P-0377, 3-(4-(1-methyl-1H-pyrazol-4-yl)phenyl)-N-(pyridin-3-ylmethyl)imidazo[1,2-a]pyridin-5-amine] |
| 100 to 1000 nM | Cn1cc(-c2ccc(-c3cnc4cccc(N5CCC(C(N)=O)C5)n34)cc2)cn1 (stereo not shown) [Compound P-0378, 1-(3-(4-(1-methyl-1H-pyrazol-4-yl)phenyl)imidazo[1,2-a]pyridin-5-yl)pyrrolidine-3-carboxamide] |
| 1000 to 10000 nM | CNC(=O)C1CCN(c2cccc3ncc(-c4ccc(-c5cnn(C)c5)cc4)n23)CC1 [Compound P-0380, N-methyl-1-(3-(4-(1-methyl-1H-pyrazol-4-yl)phenyl)imidazo[1,2-a]pyridin-5-yl)piperidine-4-carboxamide] |
| 1000 to 10000 nM | Cn1cc(-c2ccc(-c3cnc4cccc(N5CCCCC5)n34)cc2)cn1 [Compound P-0381, 3-(4-(1-methyl-1H-pyrazol-4-yl)phenyl)-5-(piperidin-1-yl)imidazo[1,2-a]pyridine] |
| 1000 to 10000 nM | Cn1cc(-c2ccc(-c3cnc4cccc(N5CCN(c6nccs6)CC5)n34)cc2)cn1 [Compound P-0383, 2-(4-(3-(4-(1-methyl-1H-pyrazol-4-yl)phenyl)imidazo[1,2-a]pyridin-5-yl)piperazin-1-yl)thiazole] |
| 1000 to 10000 nM | Cn1cc(-c2ccc(-c3cnc4cccc(N5CCC(C(O)c6cccnc6)CC5)n34)cc2)cn1 (stereo not shown) [Compound P-0384, (1-(3-(4-(1-methyl-1H-pyrazol-4-yl)phenyl)imidazo[1,2-a]pyridin-5-yl)piperidin-4-yl)(pyridin-3-yl)methanol] |
| 1000 to 10000 nM | Cn1cc(-c2ccc(-c3cnc4cccc(N5CCN(c6ccccn6)CC5)n34)cc2)cn1 [Compound P-0385, 3-(4-(1-methyl-1H-pyrazol-4-yl)phenyl)-5-(4-(pyridin-2-yl)piperazin-1-yl)imidazo[1,2-a]pyridine] |
| 0.1 to 100 nM | Cn1cc(-c2ccc(-c3cnc4cccc(N5CCN(c6cccnc6)CC5)n34)cc2)cn1 [Compound P-0386, 3-(4-(1-methyl-1H-pyrazol-4-yl)phenyl)-5-(4-(pyridin-3-yl)piperazin-1-yl)imidazo[1,2-a]pyridine] |
| 100 to 1000 nM | Cn1cc(-c2ccc(-c3cnc4cccc(NC5CCOCC5)n34)cc2)cn1 [Compound P-0388, 3-(4-(1-methyl-1H-pyrazol-4-yl)phenyl)-N-(tetrahydro-2H-pyran-4-yl)imidazo[1,2-a]pyridin-5-amine] |
| 1000 to 10000 nM | Cn1cc(-c2ccc(-c3cnc4cccc(NCc5ccccc5)n34)cc2)cn1 [Compound P-0389, N-benzyl-3-(4-(1-methyl-1H-pyrazol-4-yl)phenyl)imidazo[1,2-a]pyridin-5-amine] |
| 100 to 1000 nM | Cn1cc(-c2ccc(-c3cnc4cccc(NCCCO)n34)cc2)cn1 [Compound P-0390, 3-((3-(4-(1-methyl-1H-pyrazol-4-yl)phenyl)imidazo[1,2-a]pyridin-5-yl)amino)propan-1-ol] |
